Results on seven compounds are retold here after patent US8637498B2, “Oxopiperazine-azetidine amides and oxodiazepine-azetidine amides as monoacylglycerol lipase inhibitors” (Janssen Pharmaceutica, NV, priority 2010, dated 2014).

In test [1] the target is T1, purified wild type MGL (wt-MGLL 6H-11-313) (Homo sapiens, UniProt Q99685).
T1 construct: wt-MGLL 6H-11-313; 6H (hexahistidine) (N)
T1 sequence (Q99685 1-303): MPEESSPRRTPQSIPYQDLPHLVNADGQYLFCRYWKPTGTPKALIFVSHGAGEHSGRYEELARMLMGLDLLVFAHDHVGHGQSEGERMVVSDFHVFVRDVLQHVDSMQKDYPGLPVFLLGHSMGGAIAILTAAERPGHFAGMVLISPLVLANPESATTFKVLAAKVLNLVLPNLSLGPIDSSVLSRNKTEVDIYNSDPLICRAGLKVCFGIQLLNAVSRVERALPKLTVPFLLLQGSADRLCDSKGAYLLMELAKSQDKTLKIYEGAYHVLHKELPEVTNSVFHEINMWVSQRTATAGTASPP
Kind of test: MGL Enzyme Activity Assay (wild type MGL, 4MU-B substrate). The class given is biochemical. Particulars: wild type MGL 5 nM, 4MU-B 10 μM, 37° C.; read-out: MGL wild type inh IC50. Here is the method: (§1) All rate-based assays were performed in black 384-well polypropylene PCR microplates (Abgene) in a total volume of 30 μL. Substrate 4-methylumbelliferyl butyrate (4MU-B; Sigma) and either purified mutant MGL (mut-MGLL 11-313 L179S L186S) or purified wild type MGL (wt-MGLL 6H-11-313) were diluted separately into 20 mM PIPES buffer (pH=7.0), containing 150 mM NaCl and 0.001% Tween 20. Compounds of Formula (Ia) and (Ib) were pre-dispensed (50 nL) into the assay plate using a Cartesian Hummingbird prior to adding 4MU-B (25 μL of 1.2× solution to a final concentration of 10 μM) followed by enzyme (5 μL of a 6× solution to a final concentration of 5 nM) to initiate the reaction. Final compound concentrations ranged from 17 to 0.0003 μM. The fluorescence change due to 4MU-B cleavage was monitored with excitation and emission wavelengths of 335 and 440 nm, respectively, and a bandwidth of 10 nm (Safire^2, Tecan) at 37° C. for 5 min.
(§2) The IC50 values for compounds of Formula (Ia) or (Ib) were determined using Excel from a fit of the equation to the concentration-response plot of the fractional activity as a function of inhibitor concentration.

Test [2] has as its target T2, mutant MGL (Homo sapiens, UniProt Q99685, L169S/L176S).
T2 construct: mut-MGLL 11-313 L179S L186S
T2 sequence (Q99685 1-303 L169S/L176S): T1 sequence (Q99685 1-303) with L169S, L176S
Kind of test: MGL ThermoFluor Assay - Mutant. The class given is binding. Here is the method: The ThermoFluor (TF) assay is a 384-well plate-based binding assay that measures thermal stability of proteins^1,2. The experiments were carried out using instruments available from Johnson & Johnson Pharmaceutical Research & Development, LLC. TF dye used in all experiments was 1,8-ANS (Invitrogen: A-47). Final TF assay conditions used for MGL studies were 0.07 mg/ml of mutant MGL, 100 μM ANS, 200 mM NaCl, 0.001% Tween-20 in 50 mM PIPES (pH=7.0).
Screening compound plates contained 100% DMSO compound solutions at a single concentration. For follow-up concentration-response studies, compounds were arranged in a pre-dispensed plate (Greiner Bio-one: 781280), wherein compounds were serially diluted in 100% DMSO across 11 columns within a series. Columns 12 and 24 were used as DMSO reference and contained no compound. For both single and multiple compound concentration-repsonse experiments, the compound aliquots (46 nL) were robotically predispensed directly into 384-well black assay plates (Abgene: TF-0384/k) using the Hummingbird liquid handler. Following compound dispension, protein and dye solutions were added to achieve the final assay volume of 3 μL. The assay solutions were overlayed with 1 μL of silicone oil (Fluka, type DC 200: 85411) to prevent evaporation.
Bar-coded assay plates were robotically loaded onto a thermostatically controlled PCR-type thermal block and then heated from 40 to 90° C. degrees at a ramp-rate of 1° C./min for all experiments. Fluorescence was measured by continuous illumination with UV light (Hamamatsu LC6), supplied via fiber optics and filtered through a band-pass filter (380-400 nm; >6 OD cutoff). Fluorescence emission of the entire 384-well plate was detected by measuring light intensity using a CCD camera (Sensys, Roper Scientific) filtered to detect 500±25 nm, resulting in simultaneous and independent readings of all 384 wells. A single image with 20-sec exposure time was collected at each temperature, and the sum of the pixel intensity in a given area of the assay plate was recorded vs temperature and fit to standard equations to yield the Tm^1. • 1. Pantoliano, M. W., Petrella, E. C., Kwasnoski, J. D., Lobanov, V. S., Myslik, J., Graf, E., Carver, T., Asel, E., Springer, B. A., Lane, P., and Salemme, F. R. (2001) J Biomol Screen 6, 429-40. • 2. Matulis, D., Kranz, J. K., Salemme, F. R., and Todd, M. J. (2005) Biochemistry 44, 5258-66.
The Kd values for compounds of Formula (Ia) and (Ib) were determined from a fit of the equation to the concentration-response plot of the fractional activity as a function of Tm. For some experiments, quantitative NMR spectroscopy (qNMR) was used to measure concentration of the initial 100% DMSO compound solutions and, using the same fitting method, qKd values were determined.
For orientation: Differential scanning fluorimetry follows unfolding on heating by fluorescence.

The target in test [3] is T3, MGL (Rattus norvegicus, UniProt Q8R431).
T3 construct: one g rat brain was homogenized; from tissue; host or cells: rat brain homogenate
T3 sequence (Q8R431 1-303): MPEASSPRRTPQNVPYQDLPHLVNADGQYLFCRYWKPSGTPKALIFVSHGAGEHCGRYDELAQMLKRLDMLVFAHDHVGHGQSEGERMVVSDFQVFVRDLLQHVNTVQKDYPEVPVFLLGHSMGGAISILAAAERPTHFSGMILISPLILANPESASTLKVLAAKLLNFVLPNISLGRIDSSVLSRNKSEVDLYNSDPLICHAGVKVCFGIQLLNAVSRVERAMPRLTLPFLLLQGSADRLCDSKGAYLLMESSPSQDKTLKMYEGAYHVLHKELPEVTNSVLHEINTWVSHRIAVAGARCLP
Kind of test: 2-AG Accumulation Assay in rat brain homogenate. It counts as biochemical. As to conditions: compound @1 μM, 2-AG accumulation as percent of vehicle. Here is the method: After a 15-min incubation time at 37° C., CaCl2 (final concentration=10 mM) was added and then incubated for 15 min at 37° C. in a total volume of 5 mL. The reactions were stopped with 6 mL organic solvent extraction solution of 2:1 chloroform/methanol. Accumulated 2-AG in the organic phase was measured by a HPLC/MS method, according to the following equation: percent vehicle=(2-AG accumulation in the presence of compound/2-AG accumulation in vehicle)×100.

For test [4], the target named is T4, purified mutant MGL (mut-MGLL 11-313 L179S L186S) (Homo sapiens, UniProt Q99685, L169S/L176S).
T4 construct: mut-MGLL 11-313 L179S L186S
T4 sequence (Q99685 1-303 L169S/L176S): T1 sequence (Q99685 1-303) with L169S, L176S
Briefly: MGL Enzyme Activity Assay (mutant MGL, 4MU-B substrate). The class given is biochemical. Particulars: mutant MGL 5 nM, 4MU-B 10 μM, 37° C.; read-out: MGL mutant inh IC50. The protocol: as §1, §2

Where [5] appears, read: mutant MGL 0.07 mg/ml, 1,8-ANS dye, read-out: MGL mutant ThermoFluor Kd.
[6] abbreviates: mutant MGL, compound concentration measured by qNMR, read-out: MGL mutant ThermoFluor qKd (using qNMR conc.).

Positions count from the first letter of the chain named. Read-outs that look alike come from different tables or passages of the source.

Usually IC50 stands for the concentration at which inhibition is half-maximal. Take `O=C(c1ccc2c(ccn2-c2ccc(C(F)(F)F)cc2)c1)N1CC(N2CCN(c3ncccn3)C(=O)C2)C1` [Cpd 3, 1-Pyrimidin-2-yl-4-[1-({1-[4-(trifluoromethyl)phenyl]-1H-indol-5-yl}carbonyl)azetidin-3-yl]piperazin-2-one]: the IC50 in test [1] worked out at 6 nM. Besides, the Kd in test [2] (setting [5]) is 39.8 nM. Moreover, the “Rat Brain 2AG % VehCntrl (%) @1 μM” value in test [3] was 418%.
As to `O=C(c1ccc(Cc2ccccc2)cc1)N1CC(N2CCN(c3ccccc3)C(=O)C2)C1` [Cpd 1, 4-(1-(4-benzylbenzoyl)azetidin-3-yl)-1-phenylpiperazin-2-one], in test [4], the IC50 came to 5280 nM. The Kd in test [2] (setting [5]) is 3330 nM.
Take `O=C(c1sc2cc(C(F)(F)F)ccc2c1Cl)N1CC(N2CCN(c3cscn3)C(=O)C2)C1` [Cpd 7, 4-(1-{[3-Chloro-6-(trifluoromethyl)-1-benzothiophen-2-yl]carbonyl}azetidin-3-yl)-1-(1,3-thiazol-4-yl)piperazin-2-one]: the IC50 in test [1] stood at 67.2 nM. Also, the Kd in test [2] (setting [6]) stood at 186 nM. Further, the “Rat Brain 2AG % VehCntrl (%) @1 μM” value in test [3] came to 155%.
Turning to `O=C(c1ccc2c(ccn2-c2ccc(F)cc2)c1)N1CC(N2CCN(c3nccs3)C(=O)C2)C1` [Cpd 5, 4-(1-{[1-(4-Fluorophenyl)-1H-indol-5-yl]carbonyl}azetidin-3-yl)-1-(1,3-thiazol-2-yl)piperazin-2-one], the IC50 in test [1] came out at 10 nM. Moreover, the Kd in test [2] (setting [6]) was found to be 171 nM. The “Rat Brain 2AG % VehCntrl (%) @1 μM” value in test [3] was determined as 316%.
As for `O=C(c1ccc2c(ccn2-c2ccc(F)cc2)c1)N1CC(N2CCN(c3cscn3)C(=O)C2)C1` [Cpd 6, 4-(1-{[1-(4-Fluorophenyl)-1H-indol-5-yl]carbonyl}azetidin-3-yl)-1-(1,3-thiazol-4-yl)piperazin-2-one], the IC50 in test [1] turned out to be 29 nM. For the same compound, the Kd in test [2] (setting [6]) was determined as 621 nM. The “Rat Brain 2AG % VehCntrl (%) @1 μM” value in test [3] came out at 302%.
As for `O=C(c1ccc2c(ccn2-c2ccc(C(F)(F)F)cc2)c1)N1CC(N2CCN(c3ncccn3)CC2=O)C1` [Cpd 24, 4-Pyrimidin-2-yl-1-[1-({1-[4-(trifluoromethyl)phenyl]-1H-indol-5-yl}carbonyl)azetidin-3-yl]piperazin-2-one], the IC50 in test [1] worked out at 37.9 nM. The Kd in test [2] (setting [5]) is 433 nM. In addition, the “Rat Brain 2AG % VehCntrl (%) @1 μM” value in test [3] was 155%.
For `O=C(c1ccc(-c2ccccc2)cc1)N1CC(N2CCN(c3ccccc3)C(=O)C2)C1` [Cpd 2, 4-(1-([1,1′-biphenyl]-4-carbonyl)azetidin-3-yl)-1-phenylpiperazin-2-one], the IC50 in test [4] was determined as 4240 nM. Also, the Kd in test [2] (setting [5]) is 19700 nM.
